Measured values from US20230167088A1, “1-PYRAZINYLPYRAZOLYL-3-OXYALKYL ACIDS AND THEIR DERIVATIVES, AND THEIR USE FOR CONTROL OF UNDESIRED PLANT GROWTH” (BAYER AKTIENGESELLSCHAFT, priority 2020, published 2023).

Assays:
ALOMY [1] = test: Herbicidal post-emergence action 1a (greenhouse pots, visual rating); type: in vivo, Alopecurus myosuroides; conditions: Dosage 80 g/ha; rated visually about 3 weeks after treatment; 100% = plants have died, 0% = like control plants
Summary of the method: (§1)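 Weeds and crops sown in sandy loam in greenhouse pots were sprayed post-emergence at the one-leaf stage (2–3 weeks after sowing) with WP or EC formulations plus 0.5% additive at 600 l/ha water, 320 and/or 80 g/ha. About 3 weeks later damage was rated visually against untreated controls (0% = no effect, 100% = dead).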

AVEFA [2] = test: as above; type: in vivo, Avena fatua; conditions: Dosage 80 g/ha; rated visually about 3 weeks after treatment; 100% = plants have died, 0% = like control plants
Summary of the method: as §1

AMARE [3] = test: as above; type: in vivo, Amaranthus retroflexus; conditions: dosage 80 g/ha, visual rating about 3 weeks after treatment
Summary of the method: as §1

POAAN [4] = test: Herbicidal post-emergence action 1b (twin sowing, 1280 g/ha); type: in vivo, Poa annua; conditions: dosage 1280 g/ha, visual rating about 3 weeks after treatment
Summary of the method: (§2)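 Sow paired weed species in sandy loam pots and grow in the greenhouse; at the one-leaf stage (2–3 weeks) spray green parts with compound suspension or emulsion containing 0.5% additive at 600 L water/ha; keep about 3 weeks, then score damage visually relative to untreated plants.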

DIGSA [5] = test: as above; type: in vivo, Digitaria sanguinalis; conditions: dosage 1280 g/ha, visual rating about 3 weeks after treatment
Experimental: (§3) [table] b) Seeds of mono- and dicotyledonous weed plants are placed in plastic pots in sandy loam soil (twin sowing with one species each of mono- or dicotyledonous weed plants per pot), covered with soil and cultivated in a greenhouse under controlled growth conditions. 2 to 3 weeks after sowing, the test plants are treated at the one-leaf stage. The compounds of the invention, formulated in the form of wettable powders (WP) or as emulsion concentrates (EC), are applied to the green parts of the plants as aqueous suspension or emulsion with addition of 0.5% additive at a water application rate equivalent to 600 litres per hectare. After the test plants have been kept in the greenhouse under optimum growth conditions for about 3 weeks, the activity of the preparations is rated visually in comparison to untreated controls. For example, 100% activity=the plants have died, 0% activity=like control plants. Tables A16 to A21 below show the effects of selected compounds of the general formula (I) according to Tables 1 and 2 on various harmful plants and at an application rate corresponding to 1280 g/ha, which were obtained by the experimental procedure mentioned above.

ECHCG [6] = test: as above; type: in vivo, Echinochloa crus-galli; conditions: dosage 1280 g/ha, visual rating about 3 weeks after treatment
Experimental: as §3

MATIN [7] = test: as above; type: in vivo, Matricaria inodora; conditions: dosage 1280 g/ha, visual rating about 3 weeks after treatment
Summary of the method: as §2

STEME [8] = test: as above; type: in vivo, Stellaria media; conditions: dosage 1280 g/ha, visual rating about 3 weeks after treatment
Experimental: as §3

ALOMY [9] = test: Herbicidal pre-emergence action 2a (greenhouse pots, visual scoring); type: in vivo, Alopecurus myosuroides; conditions: dosage 320 g/ha, visual scoring after about 3 weeks
Summary of the method: (§4)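 The soil covering sown seeds is treated with an aqueous suspension or emulsion of wettable powder or emulsion concentrate (0.5% additive, 600 l/ha), corresponding to 320 g/ha and/or 80 g/ha. After about 3 weeks of greenhouse growth, damage is scored visually as a percentage.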

AVEFA [10] = test: as above; type: in vivo, Avena fatua; conditions: dosage 320 g/ha, visual scoring after about 3 weeks
Summary of the method: as §4

LOLRI = test: as above; type: in vivo, Lolium rigidum; conditions: dosage 320 g/ha, visual scoring after about 3 weeks vs untreated controls
Summary of the method: as §4

AMARE [11] = test: as above; type: in vivo, Amaranthus retroflexus; conditions: dosage 320 g/ha, visual scoring after about 3 weeks vs untreated controls
Summary of the method: as §4

POLCO = test: as above; type: in vivo, Polygonum convolvulus; conditions: dosage 320 g/ha, visual scoring after about 3 weeks vs untreated controls
Summary of the method: as §4

VIOTR = test: as above; type: in vivo, Viola tricolor; conditions: dosage 320 g/ha, visual scoring after about 3 weeks vs untreated controls
Description: [table] a) Seeds of monocotyledonous and dicotyledonous weed plants and crop plants are placed in plastic or organic plant pots and covered with soil. The compounds of the invention, formulated in the form of wettable powders (WP) or as emulsion concentrates (EC), are then applied onto the surface of the covering soil as aqueous suspension or emulsion with addition of 0.5% additive at a water application rate of 600 1/ha (converted). After the treatment, the pots are placed in a greenhouse and kept under good growth conditions for the trial plants. After about 3 weeks, the effect of the preparations is scored visually in comparison with untreated controls as percentages. For example, 100% activity=the plants have died, 0% activity=like control plants. Tables B1 to B15 below show the effects of selected compounds of the general formula (I) according to Tables 1 and 2 on various harmful plants and an application rate corresponding to 320 g/ha and/or 80 g/ha, which were obtained by the experimental procedure mentioned above.

VERPE = test: as above; type: in vivo, Veronica persica; conditions: dosage 320 g/ha, visual scoring after about 3 weeks vs untreated controls
Summary of the method: as §4

POAAN [12] = test: Herbicidal pre-emergence action 2b (doubly sown, 1280 g/ha); type: in vivo, Poa annua; conditions: doubly sown pots, dosage 1280 g/ha, visual scoring after about 3 weeks
Summary of the method: (§5)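 Read-out: visual percentage damage relative to untreated controls, scored after roughly 3 weeks in the greenhouse, where 100% means plants died and 0% equals control. Seeds were sown two species per pot in sandy loam and covered before the compounds, formulated as WP or EC with 0.5% additive, were sprayed onto the soil at 600 L/ha.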

DIGSA [13] = test: as above; type: in vivo, Digitaria sanguinalis; conditions: doubly sown pots, dosage 1280 g/ha, visual scoring after about 3 weeks
Summary of the method: as §5

ECHCG [14] = test: as above; type: in vivo, Echinochloa crus-galli; conditions: doubly sown pots, dosage 1280 g/ha, visual scoring after about 3 weeks
Summary of the method: as §5

AMARE [15] = test: as above; type: in vivo, Amaranthus retroflexus; conditions: doubly sown pots, dosage 1280 g/ha, visual scoring after about 3 weeks
Summary of the method: as §5

MATIN [16] = test: as above; type: in vivo, Matricaria inodora; conditions: doubly sown pots, dosage 1280 g/ha, visual scoring after about 3 weeks
Summary of the method: as §5

STEME [17] = test: as above; type: in vivo, Stellaria media; conditions: doubly sown pots, dosage 1280 g/ha, visual scoring after about 3 weeks
Summary of the method: as §5

ABUTH = test: Herbicidal post-emergence action 1b (twin sowing, 1280 g/ha); type: in vivo, Abutilon theophrasti; conditions: dosage 1280 g/ha, visual rating about 3 weeks after treatment
Experimental: as §3

| SMILES | Post-emergence action at 1280 g/ha against POAAN in % (POAAN [4]) | Post-emergence action at 1280 g/ha against DIGSA in % (DIGSA [5]) | Post-emergence action at 1280 g/ha against ECHCG in % (ECHCG [6]) | Post-emergence action at 1280 g/ha against MATIN in % (MATIN [7]) | Post-emergence action at 1280 g/ha against STEME in % (STEME [8]) | Pre-emergence action at 1280 g/ha against POAAN in % (POAAN [12]) | Pre-emergence action at 1280 g/ha against DIGSA in % (DIGSA [13]) | Pre-emergence action at 1280 g/ha against ECHCG in % (ECHCG [14]) | Pre-emergence action at 1280 g/ha against AMARE in % (AMARE [15]) | Pre-emergence action at 1280 g/ha against MATIN in % (MATIN [16]) | Pre-emergence action at 1280 g/ha against STEME in % (STEME [17]) | Post-emergence action at 1280 g/ha against ABUTH in % (ABUTH) | further results |
| --- | --- | --- | --- | --- | --- | --- | --- | --- | --- | --- | --- | --- | --- |
| COC(=O)[C@@H](C)Oc1nn(-c2nccnc2Cl)c(-c2ccc(F)nc2)c1Br [Example I-72] | 100% | 100% | 100% | 100% | 90% | 100% | 100% | 100% | 100% | 100% | 100% |  | Post-emergence action against ALOMY in % (ALOMY [1]): 90%; Post-emergence action against AVEFA in % (AVEFA [2]): 90%; Post-emergence action against AMARE in % (AMARE [3]): 80%; Pre-emergence action against ALOMY in % (ALOMY [9]): 90%; Pre-emergence action against AVEFA in % (AVEFA [10]): 80%; Pre-emergence action against LOLRI in % (LOLRI): 100%; Pre-emergence action against AMARE in % (AMARE [11]): 100%; Pre-emergence action against POLCO in % (POLCO): 90%; Pre-emergence action against VIOTR in % (VIOTR): 90%; Pre-emergence action against VERPE in % (VERPE): 80% |
| CC(Oc1nn(-c2cnccn2)c(-c2ccc(F)nc2)c1Br)C(=O)O (racemic) [Example I-24] | 100% |  |  |  |  | 100% | 100% |  | 90% |  | 90% | 90% |  |
| CCOC(=O)COc1nn(-c2cnccn2)c(-c2ccc(F)nc2)c1C(F)(F)F [Example I-66] | 90% |  |  | 90% |  | 100% | 100% | 90% | 100% | 100% | 100% | 90% |  |
| COC(=O)[C@@H](C)Oc1nn(-c2cnccn2)c(-c2cccnc2)c1Br [Example I-38] | 100% | 90% | 100% | 90% | 100% | 100% | 100% | 100% | 100% | 100% | 100% |  |  |
| O=C(O)COc1nn(-c2nccnc2Cl)c(-c2ccc(F)nc2)c1Br [Example I-73] | 100% |  | 100% | 100% |  | 100% |  | 100% | 100% | 100% | 100% | 90% |  |
| COC(=O)[C@@H](C)Oc1nn(-c2cnccn2)c(-c2cncnc2)c1Br [Example I-30] | 100% | 100% | 90% |  | 90% | 100% | 100% | 100% | 100% | 90% | 100% | 90% |  |
| COC(=O)[C@H](C)Oc1nn(-c2cnccn2)c(-c2ccc(F)nc2)c1Br [Example I-18] | 100% | 100% |  | 90% | 100% | 100% | 100% | 100% | 100% | 90% | 100% | 90% |  |
| CC(C)=NOC(=O)COc1nn(-c2cnccn2)c(-c2ccc(F)nc2)c1Br [Example I-69] | 90% | 90% | 90% | 90% | 90% | 100% | 100% | 100% | 100% | 100% | 100% |  |  |
